Like-named read-outs stand apart in the source and are kept apart here.
Experiments:
[1] = target: constitutive proteasome (B5c) (Homo sapiens, UniProt P20618+P28074); assay: Caliper-based proteasome assay, constitutive proteasome chymotrypsin-like activity; format: biochemical; conditions: human recombinant constitutive proteasome 0.3 nM, FAM-labeled peptide substrate 1 μM, room temperature 3 h
Procedure: (§1) A Caliper-based proteasome assay (Caliper Life Sciences, Hopkinton, Mass.) was used to measure inhibition of the chymotrypsin-like activity of both immunoproteasome (LMP7/B5i) and the constitutive proteasome (B5c) for a compound of Formula (I). Serial dilutions of test compounds were incubated with either human recombinant immunoproteasome or constitutive proteasome (0.3 nM enzyme) and a carboxyfluorescein (FAM)-labeled peptide substrate FAM-TYETFKSIMKKSPF-NH2 (1 μM) at room temperature for 3 h. The reaction buffer was 20 mM Hepes pH 7.4, 0.01% bovine serum albumin, 0.015% SDS, 0.5 mM EDTA, 1% DMSO. The reaction was then terminated with a buffer containing the known proteasome inhibitor carfilzomib at a concentration of 5 uM. The peptide cleavage reaction product was quantified on a Caliper LabChip 3000. Percent inhibition was calculated for each compound dilution and the concentration that produced 50% inhibition was calculated. This value is presented as the IC50.

[2] = target: immunoproteasome (LMP7/B5i) (Homo sapiens, UniProt P20618+P28062); assay: Caliper-based proteasome assay, immunoproteasome chymotrypsin-like activity; format: biochemical; conditions: human recombinant immunoproteasome 0.3 nM, FAM-labeled peptide substrate 1 μM, room temperature 3 h
Procedure: as §1

[3] = target: T1, proteasome activity in HT-29 cells (enriched in constitutive proteasome) (Homo sapiens, UniProt P28074); assay: Inhibition of proteasome activity in cells (Proteasome-Glo), HT-29; format: cell-based; conditions: 2 hr incubation, Suc-LLVY-aminoluciferin, read-out: HT29 IC50
T1 construct: endogenous in cells; host or cells: HT-29
Procedure: (§2) The cell-based effects of the compound of the present disclosure on immunoproteasome were determined by measuring inhibition of proteasome activity in cells using the Proteasome-Glo™ Cell-Based Reagent (Promega, Madison Wis). The Proteasome-Glo™ assay contains a specific luminogenic proteasome substrate in a buffer optimized for cell permeabilization, proteasome activity, and luciferase activity. For the chymotrypsin-like activity, the peptide substrate is Suc-LLVY-aminoluciferin (Succinyl-leucine-leucine-valine-tyrosine-aminoluciferin). Cleavage of the substrate by proteasome results in luminescent signal which is proportional to the proteasome activity. The cell line THP-1 (a monocytic leukemia cell line enriched in immunoproteasome), the cell line HT-29 (a colorectal adenocarcinoma cell line enriched in constitutive proteasome), and primary human peripheral blood mononuclear cells (PBMC) were used to assess proteasome activity. Cells were seeded in a 96-well plate at 10,000 cells per well in RPMI 1640 high glucose medium with 10% fetal bovine serum (FBS). Compound dilutions were added to cells starting at a concentration of 5 uM and decreasing in tripling dilutions. The final DMSO concentration was 1%. The concentration range was adjusted as needed for compounds of different potencies. The cells treated with compounds were incubated for 2 hr at 37° C. in 5% CO2. At the end of the 2 hour incubation period, cells were transferred to white 384 well assay plates. 20 uL of Proteasome-Glo™ Reagent was added to each well and incubated for 10 minutes at room temperature. The plate was read in the Analyst HT instrument (Molecular Devices, Sunnyvale, Calif.) using luminescence mode. The percent inhibition of activity was plotted as a function of log compound concentration. The IC50 was then calculated for each compound using Prism software from GraphPad Software Inc. (San Diego, Calif).

[4] = target: T2, proteasome activity in primary human peripheral blood mononuclear cells (PBMC) (Homo sapiens, UniProt P28062); assay: Inhibition of proteasome activity in cells (Proteasome-Glo), PBMC; format: cell-based; conditions: 2 hr incubation, Suc-LLVY-aminoluciferin
T2 construct: endogenous in cells; host or cells: primary human PBMC
Procedure: as §2

[5] = target: T3, proteasome activity in HT-29 cells (Homo sapiens, UniProt P28074); assay: Durability of binding in cells, wash-out assay (Proteasome-Glo), HT-29; format: cell-based; conditions: 2 hours incubation, washout
T3 construct: endogenous in cells; host or cells: HT-29
Procedure: The durability of binding of proteasome inhibitors was assessed in cells using wash-out assays and the Proteasome-Glo™ Reagent kit. THP-1 cells, HT-29 cells, or PBMC were incubated with an 8-fold dilution series of inhibitor for 2 hours. Following 2 hours of incubation, cells were washed using 3 occasions of centrifugation followed by resuspension in culture medium. Following inhibitor washout, cells were returned to culture for either 30 minutes, 4 hours, or 18 hours. Cells were then transferred to white 384 plates, and 20 uL of Proteasome-Glo™ Reagent was added to each well for 10 minutes. Plates were then read on an Analyst HT plate reader using luminescence mode. The percent inhibition of activity was plotted as a function of log compound concentration. The IC50 was then calculated for each compound using Prism software from GraphPad.

[6] = 30 minutes in culture, read-out: HT29 (30 min) IC50
[7] = 4 hours in culture, read-out: HT29 (4 h) IC50

SMILES | IC50 [1] [nM] | IC50 [2] [nM] | IC50 [3] [nM] | IC50 [4] [nM] | IC50 [5, 6] [nM] | IC50 [5, 7] [nM]
Cc1ccc(CNC(=O)[C@H](CCCCNC(=O)C(C#N)=CC(C)(C)C)NC(=O)[C@@H](C)NC(=O)c2cc(C)on2)cc1 [Example 21d, N—((R)-1-(((S)-6-(2-cyano-4,4-dimethylpent-2-enamido)-1-((4-methylbenzyl)amino)-1-oxohexan-2-yl)amino)-1-oxopropan-2-yl)-5-methylisoxazole-3-carboxamide] | 3950 | 144 | – | – | – | –
Cc1ccc(CNC(=O)[C@H](CC2CCN(C(=O)C(C#N)=CC(C)C)CC2)NC(=O)[C@@H](NC(=O)c2cc(C)on2)[C@@H](C)O)cc1 [Example 29, N-((2S,3R)-1-(((S)-3-(1-(2-cyano-4-methylpent-2-enoyl)piperidin-4-yl)-1-((4-methylbenzyl)amino)-1-oxopropan-2-yl)amino)-3-hydroxy-1-oxobutan-2-yl)-5-methylisoxazole-3-carboxamide] | 788 | 103 | – | – | – | –
Cc1ccc(CNC(=O)[C@H](COc2cccc(C=C(C#N)C(=O)N(C)C)c2)NC(=O)[C@@H](NC(=O)c2cc(C)on2)[C@@H](C)O)cc1 [Example 1, N-((2S,3R)-1-(((S)-3-(3-(2-cyano-3-(dimethylamino)-3-oxoprop-1-en-1-yl)phenoxy)-1-((4-methylbenzyl)amino)-1-oxopropan-2-yl)amino)-3-hydroxy-1-oxobutan-2-yl)-5-methylisoxazole-3-carboxamide] | 274 | 31 | – | – | – | –
Cc1ccc(CNC(=O)[C@H](COc2cccc(C=C(C#N)C(=O)NC(C)(C)C)c2)NC(=O)[C@@H](NC(=O)c2cc(C)on2)[C@@H](C)O)c(F)c1 [Example 7, N-((2S,3R)-1-(((S)-3-(3-(3-(tert-butylamino)-2-cyano-3-oxoprop-1-en-1-yl)phenoxy)-1-((2-fluoro-4-methylbenzyl)amino)-1-oxopropan-2-yl)amino)-3-hydroxy-1-oxobutan-2-yl)-5-methylisoxazole-3-carboxamide] | 2140 | 11 | – | – | – | –
Cc1ccc(CNC(=O)[C@H](Cc2cccc(N(C)C(=O)C(C#N)=CC(C)C)c2)NC(=O)[C@@H](NC(=O)c2cc(C)on2)[C@@H](C)O)c(F)c1 [Example 27, N-((2S,3R)-1-(((S)-3-(3-(2-cyano-N,4-dimethylpent-2-enamido)phenyl)-1-((2-fluoro-4-methylbenzyl)amino)-1-oxopropan-2-yl)amino)-3-hydroxy-1-oxobutan-2-yl)-5-methylisoxazole-3-carboxamide] | 147 | 21 | 360 | 13 | 3800 | > 5000
Cc1ccc(CNC(=O)[C@H](CCCCN(C)C(=O)C(C#N)=CC(C)C)NC(=O)[C@@H](NC(=O)c2cc(C)on2)[C@@H](C)O)cc1 [Example 22, N-((2S,3R)-1-(((S)-6-(2-cyano-N,4-dimethylpent-2-enamido)-1-((4-methylbenzyl)-amino)-1-oxohexan-2-yl)amino)-3-hydroxy-1-oxobutan-2-yl)-5-methylisoxazole-3-carboxamide] | 704 | 37 | – | – | – | –
Cc1ccc(CNC(=O)[C@H](COc2cccc(C=C(C#N)n3cncn3)c2)NC(=O)[C@@H](NC(=O)c2cc(C)on2)[C@@H](C)O)cc1 [Example 8a, N-((2S,3R)-1-(((S)-3-(3-(2-cyano-2-(1H-1,2,4-triazol-1-yl)vinyl)phenoxy)-1-((4-methylbenzyl)amino)-1-oxopropan-2-yl)amino)-3-hydroxy-1-oxobutan-2-yl)-5-methylisoxazole-3-carboxamide] | 120 | 17 | 200 | 10 | 580 | > 5000
Cc1ccc(CNC(=O)[C@H](Cc2cccc(NC(=O)C(C#N)=CC(C)C)c2)NC(=O)[C@@H](NC(=O)c2cc(C)on2)[C@@H](C)O)cc1 [Example 24, N-((2S,3R)-1-(((S)-3-(3-(2-cyano-4-methylpent-2-enamido)phenyl)-1-((4-methyl-benzyl)amino)-1-oxopropan-2-yl)amino)-3-hydroxy-1-oxobutan-2-yl)-5-methylisoxazole-3-carboxamide] | 3210 | 64 | – | – | – | –
Cc1ccc(CNC(=O)[C@H](Cc2cccc(N(C)C(=O)C(C#N)=CC(C)C)c2)NC(=O)[C@@H](NC(=O)c2cc(C)on2)[C@@H](C)O)cc1 [Example 25, N-((2S,3R)-1-(((S)-3-(3-(2-cyano-N,4-dimethylpent-2-enamido)phenyl)-1-((4-methylbenzyl)amino)-1-oxopropan-2-yl)amino)-3-hydroxy-1-oxobutan-2-yl)-5-methylisoxazole-3-carboxamide] | 1450 | 29 | 1180 | 15 | > 5000 | > 5000
Cc1ccc(CNC(=O)[C@H](CCCCNC(=O)C(C#N)=CC(C)C)NC(=O)[C@@H](NC(=O)c2cc(C)on2)[C@@H](C)O)cc1 [Example 21, N-((2S,3R)-1-(((S)-6-(2-cyano-4-methylpent-2-enamido)-1-((4-methylbenzyl)-amino)-1-oxohexan-2-yl)amino)-3-hydroxy-1-oxobutan-2-yl)-5-methylisoxazole-3-carboxamide] | 143 | 5 | 646 | 23 | > 5000 | –
Cc1ccc(CNC(=O)[C@H](CCc2cccc(C=C(C#N)C(=O)N(C)C)c2)NC(=O)[C@@H](NC(=O)c2cc(C)on2)[C@@H](C)O)cc1 [Example 15, N-((2S,3R)-1-(((S)-4-(3-(2-cyano-3-(dimethylamino)-3-oxoprop-1-en-1-yl)phenyl)-1-((4-methylbenzyl)amino)-1-oxobutan-2-yl)amino)-3-hydroxy-1-oxobutan-2-yl)-5-methylisoxazole-3-carboxamide] | 61 | 20 | 84 | 13 | > 5000 | > 5000
